Results reported in patent publication US5229413A, “Compositions containing indole-2-carboxylate compounds for treatment of CNS disorders” (G. D. Searle & Co., priority 1992, dated 1993).
Read-outs that look alike come from different tables or passages of the source.

Key:
NMDA receptor = details: cited from earlier work; for reversal of NMDA antagonist activity / blocking effect by glycine: presence of glycine
[1] = target: T1, NMDA receptor (rat brain receptor expressed in Xenopus oocytes) (Rattus norvegicus, UniProt P35439); test: Xenopus oocytes injected with rat cortex mRNA, blocking of glycine effects (voltage clamp); type: cell-based; details: 100 μM NMDA
T1 construct: PolyA+ RNA (mRNA) was extracted from adult male rat cortex; expressed in transfected cells; host or cells: Xenopus laevis oocytes microinjected with rat cortex poly(A)+ RNA
Protocol: PolyA+ RNA (mRNA) was extracted from adult male rat cortex using the refined guanidinium thiocyanate method developed by Han et al [J. H. Han et al., Biochemistry, 26, 1617-1625 (1987)] and the oligo (dT) cellulose chromatography procedure of Adiv and Leder [H. Aviv et al., Proc. Nat. Acad. Sci., 69, 1408-1412 (1972)]. Aliquots of mRNA (1.0 mg/ml water) were stored at -20° C.
Gravid adult female Xenopus laevis (Xenopus One, Ann Arbor, Mich. or NASCO, Ft. Atkinson, Wis.) were anaesthetized with 0.2% (w/v) Tricaine (3-amino benzoic acid ethyl ester; Sigma) and subjected to partial ovarectomy. Excised oocytes were then prepared and microinjected [N. W. Kleckner et al, Science 241 835-837 (1988)]. Oocytes were treated for one hour in Barth's solution (88.0 mM NaCl, 1.0 mM KCl, 2.4 mM NaHCO3, 0.41 mM CaCl2, 0.82 mM MgSO4, 10.0 μg/ml penicillin, 100.0 μg/ml streptomycin, 10.0 mM HEPES, pH 7.5) containing 1.5 mg/ml Neutral Protease (Beohringer Mannheim Biochemicals, Grade II). Oocytes were then placed in Barth's solution containing 100.0 mM sucrose and manually defolliculated with fine forceps. Defolliculated oocytes were then microinjected with approximately 50 ng of mRNA in Barth's solution at 16°-18° C.
Oocytes were assayed 2-8 days later for rat brain receptor expression via single electrode voltage. clamp (Axoclamp 2A, Axon Instruments) in a manner similar to that previously described [Kleckner et al, Id.]. […] Drugs were added to the perfusate and inward currents induced by agonist compounds were measured at peak steady state response. […] Antagonist compounds were perfused for a minimum of 3.0 minutes prior to subsequent agonist co-application. Data are expressed as percent maximal response (mean±S.E.M.). Half-maximal responses (EC50 's) and slopes for dose response data were determined from the least squares fit to the logistic regression equation.

[2] = target: T2, strychnineinsensitive glycine recognition site (NMDA receptor-ion channel complex) (Rattus norvegicus, UniProt P35439); test: Glycine binding assay, [3H]glycine, synaptic plasma membranes; details: 10 nM [3H]glycine, pH 7.4, rat forebrain SPM; read-out: Ki apparent, Gly
T2 construct: Synaptic plasma membranes (SPM) were prepared from rat forebrain; from tissue; host or cells: rat forebrain synaptic plasma membranes
Protocol: Synaptic plasma membranes (SPM) were prepared from rat forebrain and stored as previously described [J. B. Monahan and J. Michel, J. Neurochem, 48, 1699-1708 (1987)]. Frozen membranes were thawed and diluted 1:20 with 0.04% triton X-100 in 50 mM tris/acetate (pH 7.4). Following incubation at 37° C. for 30 min., the SPM were collected by centrifugation at 95,000 X g for 15 min. The pellet was resuspended in 50 mM tris/acetate (pH 7.4, triton-free) and hand-homogenized five times. The membranes were again centrifuged as above. The pellet was washed two additional times with 50 mM tris/acetate (without homogenization) and centrifuged. The final pellet was resuspended with homogenization in 50 mM tris/acetate.
In the general receptor binding assay procedure, 10 nM [^3 H]glycine was added to the appropriate concentration of the test compounds and the assay initiated by the addition of 0.2-0.4 mg of ice cold SPM. The assay, which was done in 1.5 ml centrifuge tubes, was adjusted to a total volume of 1.0 ml with all additions being made in 50 mM tris/ acetate, pH 7.4 at 4° C. After a 10 minute incubation at 2° C., the samples were centrifuged for 15 min. at 12,000 g (4° C.) in a Beckman Microfuge 12. The supernatant was aspirated and the tube tip containing the pelleted membranes cut off and agitated in 0.5 ml of Beckman BTS-450 tissue solubilizer for a minimum of 6 hours at room temperature. Beckman MP scintillation cocktail (5 ml) containing 7 ml/liter acetic acid was then added and the samples counted on a Beckman LS 5800 liquid scintillation counter with automatic corrections for quenching and counting efficiency. […] The binding of [^3 H]glycine to the SPM was analyzed using Scatchard and Hill transformations and the Ki for other compounds was determined using logit-log analysis. Calculations and regression analysis were performed using templates developed for Lotus 123 as previously described [Pullan et al, Id.].

hippocampal slice = test: Epileptic hippocampal slice, 0% Mg+2-induced epilepsy; type: cell-based, Sprague-Dawley albino rat; details: Rattus norvegicus, 300 μM Compound No. 35, 0% Mg+2
Description: Hippocampal slices (450 μ) were obtained from male Sprague-Dawley albino rats (100-325 g). The method of slice preparation has been detailed elsewhere [A. H. Ganong et al., Brain Res., 273, 170-174 (1983)]. Slices were stored in a humidified interface chamber at room temperature and bathed in artificial cerebrospinal fluid (ACSF) which contained (in mM): NaCl 124.0, KCl 5.0, KH2 PO4 1.0, NaHCOP3 26.4, CaCl2, 2.0, MgSO4 1.5 and D-glucose 10.0, and was equilibrated with 95% 02:5% CO2. When needed for study, slices were placed one at a time in a small submersion chamber maintained at 35° C. where they were continuously perfused at 1.0-2.0 ml/min. Fresh solutions reached the recording chamber within 20 seconds and the perfusate was completely changed over within a minute. Additional oxygen and stirring was provided by an air jet (95% O2 :5% CO2) directed at the surface of the ACSF. Standard electrophysiological techniques were employed. Extracellular recording electrodes were glass micropipettes filled with 2.0 M NaCl and broken back to 2.0 m.OMEGA. resistance. All recording was from the somatic region of CA1. […] Intracellular recording electrodes of 60-100 MQ resistance were filled with 2.5 M KAc. […] The Schaffer collateral/commissural fibers were stimulated with tungsten bipolar stimulating electrodes at a rate of 0.03 Hz. The resulting field EPSP (S/C-CA1 EPSP) and the DC potential were amplified by an Axoprobe 1 amplifier and were continuously monitored on a Tektronix 5111A storage oscilloscope and a Gould 2300 chart recorder with a Gould Waveform storage module. Epileptiform activity was induced by omission of Mg++ ions from the perfusate, which removes the Mg++ mediated voltage-dependent block of the NMDA. receptor [B. Ault et al., J. Physiol., 307, 413-428 (1980)], or by the addition of the GABA antagonist picrotoxin. Drugs were added to the perfusate and zero magnesium refers to solutions which contain no added magnesium. The amplitude of the stimulus evoked primary population spike was used to assess the effects of experimental manipulations on the efficacy of synaptic function.

Cerebellar cGMP = test: Assay for effect on cGMP (cerebellum, intracisternal injection); type: in vivo, Swiss Hausche mice; details: D-Serine (100 μg) alone, ± SEM
Protocol: Male Swiss Hausche mice (25-30 g) were injected intracisternally (i.c.t.) with glycine agonists 10 minutes prior to sacrifice by focussed microwave irradiation. Compounds of the invention were injected intracisternally 2 minutes prior to the agonist. For intracisternal injections, al agonists were dissolved in HCl and diluted with isotonic saline prior to adjustment of the pH to between 6 and 7 with NaOH. The compounds of the invention were dissolved in isotonic saline and all compounds were administered in a volume of 5 μl.
Hydrochloric acid in extracts of the cerebellum were freeze-dried for assay of cGMP with a commercial RIA kit (NEN). Protein determinations (Lowery) and statistics (Dunett's t-test) were performed as described previously [P. L. Wcod et al., Neurochem., 19, 975-982 (1980)]. Groups consisted of 7-10 mice.

[3] = target: N-methyl-D-aspartate (NMDA) receptor site; test: Glutamate (NMDA) binding assay, L-[3H]glutamate, synaptic plasma membranes; details: L-[3H]glutamate 12.5 nM, pH 7.4, 0-4° C.; read-out: Ki apparent, NMDA
Protocol: The purpose of this assay is to determine the binding affinity of a compound of Formula I for the N-methyl-D-aspartate (NMDA) receptor site. This procedure was carried out as follows:
Synaptic plasma membranes (SPM) were prepared as previously described [Monahan, J. B. and Michel, J., "Identification and Characterization of an N-methyl-D-aspartate-specific L-[^3 H]glutamate Recognition Site in Synaptic Plasma Membranes, J. Neurochem., 48, 1699-1708 (1987)]. The SPM were stored at a concentration of 10-15 mg/ml in 0.32 M sucrose, 0.5 mM EDTA, 1 mM MgSO4, 5 mM Tris/SO4, pH 7.4, under liquid nitrogen. The identity and purity of the subcellular fractions were confirmed by both electron microscopy and marker enzymes. Protein concentrations were determined by using a modification of the method of Lowry [Ohnishi, S. T. and Barr, J. K., "A Simplified Method of Quantitating Proteins Using the Biuret and Phenol Reagents", Anal. Biochem., 86, 193-197 (1978)]. The SPM were thawed at room temperature, diluted twenty-fold with 50 mM Tris/acetate, pH 7.4, incubated at 37° C. for 30 minutes, and centrifuged at 100,000 g for 15 minutes. The dilution, incubation, and centrifugation was repeated a total of three times. This general method involved adding 12.5 nM of the L-[^3 H]glutamate radioligand to the appropriate concentration of the test compound and initiating the assay by the addition of ice cold SPM (0.2-0.45 mg). The binding assays were performed in 1.5 ml centrifuge tubes with the total volume adjusted to 1.0 ml. Additions of test compounds were made in 50 mM Tris/acetate, pH 7.4 and incubations were carried out at 0°-4° C. The incubation time for the NMDA binding assay was 10 minutes. To terminate the incubation, the samples were centrifuged for 15 minutes at 12,000 g and 4° C. in a Beckman Microfuge 12. The supernatant was aspirated and the pelleted membranes dissolved in Beckman Ready-Protein scintillation cocktail and the samples counted on a Beckman LS 5800 or 3801 liquid scintillation counter with automatic corrections for quenching and counting efficiency. Nonspecific binding was defined as the residual binding in the presence of 0.5 mM NMDA and was typically 15-25% of the total binding in the NMDA binding assay. Radioligand binding to the SPM was analyzed using Scatchard and Hill transformations and the Ki values of the compounds determined using logit-log transformations. Calculations and regression analysis were performed using templates developed for Lotus 1, 2, 3 as previously described [Pullan, L. M. "Automated Radioligand Receptor Binding Analysis with Templates for Lotus", Computer Appln. Biosci., 3 131 (1987)]. Binding results are reported in Table II for example compounds of the invention.

[4] = IC50, 1.0 μM Gly, 1.0 μM glycine

| SMILES | IC50 [1, 4] | IC50 ([1]; IC50, 10 μM Gly, 10 μM glycine) | Ki [2] | NMDA antagonist activity (NMDA receptor) | reversal of NMDA antagonist activity / blocking effect by glycine (NMDA receptor) | also measured |
| --- | --- | --- | --- | --- | --- | --- |
| O=C(O)c1cc(O)c2ccc(Cl)cc2n1 [7-chlorokynurenic acid] | – | – | – | NMDA antagonist | blocking effect can be reversed by glycine | – |
| N[C@H](CO)C(=O)O [D-Serine, reference compound] | – | – | – | – | – | Cerebellar cGMP (Cerebellar cGMP): 17.5 ± 2.4 pmol/mg protein |
| O=C(O)c1cc(O)c2ccccc2n1 [kynurenic acid, 2-carboxy-4-hydroxyquinoline] | – | – | – | known NMDA antagonist | can be reversed by the presence of glycine | – |

Continued, in another order:

| IC50 [1, 4] | IC50 ([1]; IC50, 10 μM Gly, 10 μM glycine) | Ki [2] | SMILES | NMDA antagonist activity (NMDA receptor) | reversal of NMDA antagonist activity / blocking effect by glycine (NMDA receptor) | also measured |
| --- | --- | --- | --- | --- | --- | --- |
| 4.5 ± 0.5 µM | 68.5 ± 13.5 µM | 3.9 µM | CC(C)OC(=O)Cc1c(C(=O)O)[nH]c2cc(Cl)ccc12 [Compound No. 35, 2-propyl 2-carboxy-6-chloro-3-indoleacetate] | – | – | activity at 300 µM (hippocampal slice; read-out: Burst duration): 19.2%; activity at 300 µM (hippocampal slice; read-out: Primary population spike amplitude): 82.1%; activity at 300 µM (hippocampal slice; read-out: Spontaneous activity): 0%; activity at 300 µM (hippocampal slice; read-out: Sum of additional population spike amplitude): 35.6% |
| 1.6 ± 0.01 µM | 16.1 ± 1.4 µM | 0.47 µM | CCOC(=O)Cc1c(C(=O)O)[nH]c2cc(Cl)ccc12 [compound 31, ethyl 2-carboxy-6-chloro-3-indoleacetate] | – | – | Ki [3]: > 100 µM |
| 3.4 ± 0.9 µM | – | 1.2 µM | NC(=O)Cc1c(C(=O)O)[nH]c2cc(Cl)ccc12 [compound 37, 2-carboxy-6-chloro-3-indoleacetamide] | – | – | – |
